The target in one data set is T1, CYP1A2 (Homo sapiens, UniProt P05177).
T1 construct: purchased Becton Dickinson GmbH (Heidelberg)
T1 sequence (P05177 1-516): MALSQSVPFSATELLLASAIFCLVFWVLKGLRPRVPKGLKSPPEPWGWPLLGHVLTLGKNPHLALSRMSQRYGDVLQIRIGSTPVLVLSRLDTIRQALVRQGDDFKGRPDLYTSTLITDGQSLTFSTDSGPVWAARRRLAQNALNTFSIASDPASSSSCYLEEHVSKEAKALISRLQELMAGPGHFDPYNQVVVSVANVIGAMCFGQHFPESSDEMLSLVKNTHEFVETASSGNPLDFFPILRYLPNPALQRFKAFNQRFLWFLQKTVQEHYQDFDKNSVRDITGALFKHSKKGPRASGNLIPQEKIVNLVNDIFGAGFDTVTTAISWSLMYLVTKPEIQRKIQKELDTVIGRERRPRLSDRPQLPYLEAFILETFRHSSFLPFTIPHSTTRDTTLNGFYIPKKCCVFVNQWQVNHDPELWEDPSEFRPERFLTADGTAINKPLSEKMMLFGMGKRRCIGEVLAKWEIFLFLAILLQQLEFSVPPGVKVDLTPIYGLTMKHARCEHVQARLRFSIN
The experiment in a line: Inhibition of hepatic CYP enzymes: CYP1A2. The following applies: read-out: CYP1A2 IC50 (mean ± SD). The class given is biochemical. From the text: Drug interactions (inhibition of hepatic CYP enzymes): The inhibition of six human hepatic cytochrome P450 enzymes by selected compounds was examined by means of the kit supplied by Becton Dickinson GmbH (Heidelberg).

Another data set has as its target T2, 17β-HSD2 (Homo sapiens, UniProt P37059).
T2 construct: from tissue; host or cells: human placenta, microsome fraction
T2 sequence (P37059 1-387): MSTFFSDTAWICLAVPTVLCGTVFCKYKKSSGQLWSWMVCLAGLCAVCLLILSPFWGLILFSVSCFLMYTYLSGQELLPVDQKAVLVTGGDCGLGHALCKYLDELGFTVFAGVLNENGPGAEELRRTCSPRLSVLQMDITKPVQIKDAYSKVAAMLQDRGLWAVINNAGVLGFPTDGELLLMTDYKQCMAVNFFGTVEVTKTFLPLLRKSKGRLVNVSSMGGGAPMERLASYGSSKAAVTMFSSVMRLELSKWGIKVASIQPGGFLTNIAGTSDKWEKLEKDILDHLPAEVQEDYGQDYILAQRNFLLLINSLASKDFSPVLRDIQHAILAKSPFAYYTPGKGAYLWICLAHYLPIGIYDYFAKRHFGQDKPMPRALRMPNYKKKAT
The experiment in a line: Inhibition of 17β-HSD2 (estradiol to estrone, radio-HPLC). The class given is biochemical. The note with it: human placenta microsome fraction, 500 nM estradiol, NAD+ 1500 μM.

A short description of another data set: CaCo2 transport assay. The note with it: human, Caco-2; 50 μM in donor compartment; read-out: Papp [cm/sec ± rel. SD]. The class given is in vitro ADME. The procedure:
Performance of selected compounds in a CaCo2 assay: Caco-2 cell culture and transport experiments were performed according to Yee (Yee, S., Pharm. Res., 14(6): 763-766 (1997)), but slight modifications were introduced. The cultivation times were reduced from 21 to 10 days by increasing the sowing density from 6.3·10^4 to 1.65·10^5 cells per well. […] The initial concentration of the compounds in the donor compartment was 50 μM (in buffer with 1% ethanol or DMSO). Samples were taken from the acceptor side after 60, 120 and 180 min and from the donor side after 0 and 180 min. For glycoprotein P (P-gp) studies, bidirectional experiments were performed. The absorptive and secretory permeabilities (Papp (a-b) and Papp (b-a)) were determined. Thus, erythromycin was used as a substrate, and verapamil was used as an inhibitor of P-gp. Each experiment was performed in triplicate. The integrity of the monolayer was determined by means of TEER (transepithelial electric resistance) and the permeability for each assay was determined using Lucifer Yellow. All samples of the CaCo-2 transport experiments were analyzed by means of LC/MS/MS after dilution with buffer (1:1 with 2% acetic acid). The apparent permeability coefficient (Papp) was calculated by means of the formula given below, where dQ/dt represents the recovery rate of the mass in the acceptor compartment, A represents the surface area of the transwell membrane, and c0 represents the initial concentration in the donor compartment.

The values that follow come from patent publication US20110046147A1, “17BETA-HYDROXYSTEROID DEHYDROGENASE TYPE 1 INHIBITORS FOR THE TREATMENT OF HORMONE-RELATED DISEASES” (UNIVERSITAT DES SAARLANDES, priority 2007, published 2011).

For orientation: IC50 means the concentration at which inhibition is half-maximal.

As to `Oc1cccc(-c2ccc(-c3cccc(O)c3)cc2)c1` [Compound 42, [1,1′,4′,1″]Terphenyl-3,3′-diol], the concentration for half-maximal inhibition (IC50) on CYP1A2 was found to be 17.2 ± 1.16 µM; on 17β-HSD2, 2.3 µM.

Consider `Oc1ccc(-c2ccsc2-c2cccc(O)c2)cc1` [Compound 28, 3-[3-(4-Hydroxyphenyl)-2-thienyl]phenol], for which the half-maximal inhibitory concentration (IC50) on CYP1A2 turned out to be 5.35 ± 0.24 µM; at 17β-HSD2, 1.8 µM. In addition, the Papp at 180 min, 50 μM in the data set “CaCo2 transport assay” stood at 11.5 ×10⁻⁶ cm/s.
